According to patent US7879872B2, “Compositions comprising multiple bioactive agents, and methods of using the same” (Affinium Pharmaceuticals, Inc., priority 2003, dated 2011):
Marks after values point to notes of the source that are not given here.

Tests used:
S. aureus strains = assay: Checkerboard combination studies of compound G and commercial antibiotics (FIG. 6); format: cell-based; conditions: in combination with compound G, S. aureus strains tested
Protocol: Checkerboard experiments were performed and analyzed according to standard procedures as outlined below.

S. pneumoniae 22257 = assay: Combination Time-kill kinetics; format: cell-based; conditions: antibiotic alone at 4 × MIC (Azithromycin 0.12 ug/ml, Cefuroxime 8 ug/ml)
Protocol: (§1) As used herein, “synergy” refers to the in vitro effect of administration of a combination of an antibacterial agent such as a Fab I inhibiter, and antiinfective agent such that (1) the fractional inhibitory concentration (FIC) is less than or equal to 0.5 in an FIC assay described herein; or (2) there is at least a 100-fold (2 log10) increase in killing at 24 hours for the combination as compared with the bioactive agent alone in a time kill curve assay as described herein. An FIC of ≦0.5 is evidence of synergy. An additive response has an FIC value of >0.5 and less than or equal to 1, while an indifferent response has an FIC value of >1 and ≦2. An additive effect may still indicate that the combination of bioactive agent and cationic peptide are therapeutically useful.

[1] = system: S. pneumoniae 22425, a penicillin and macrolide resistant clinical isolate; assay: Combination time-kill studies; format: cell-based; conditions: for effect of compound G on the bactericidal activity (kill kinetics, kill extent) of the antibiotic: combination with compound G at 0.03 μg/ml and 1 μg/ml, S. pneumoniae
Protocol: Combination time-kill studies were performed as follows. Bacterial inocula were prepared as for MIC determination according to CLSI guidelines. Log phase cells (˜10^6 CFU/ml) were inoculated into 24 well plates and incubated with the indicated concentrations of compound G and commercial antibiotics for 24 hours at 35° C. At indicated time points samples were removed for determination of viable CFU counts. Results are plotted as log CFU/ml vs. time.

S. pneumoniae 22425 = assay: Combination Time-kill kinetics; format: cell-based; conditions: Gatifloxacin alone, 4 × MIC (2 ug/ml)
Protocol: as §1

E. faecalis A6221420 = assay: Combination Time-kill kinetics; format: cell-based; conditions: Meropenem alone, 4 × MIC (16 ug/ml)
Protocol: as §1

Q: For Gentamicin, which “combination effect with compound G (synergistic / additive / antagonism)” value (S. aureus strains) is on record?
A: synergistic effect

Q: For `CC(=O)NC[C@H]1CN(c2ccc(N3CCOCC3)c(F)c2)C(=O)O1` [linezolid], which “combination effect with compound G (synergistic / additive / antagonism)” value (S. aureus strains) is on record?
A: synergistic effect

Q: Which melting point does the source give for `CN(Cc1cc2ccccc2n1C)C(=O)/C=C/c1ccc(N2C(=O)CCC2=O)nc1` [Example 213, (E)-3-[6-(2,5-Dioxo-pyrrolidin-1-yl)pyridin-3-yl]-N-methyl-N-(1-methyl-1H-indol-2-ylmethyl)acrylamide] here?
A: 185 to 187 °C

Q: For `CC[C@H]1OC(=O)[C@H](C)[C@@H](O[C@H]2C[C@@](C)(OC)[C@@H](O)[C@H](C)O2)[C@H](C)[C@@H](O[C@@H]2O[C@H](C)C[C@H](N(C)C)[C@H]2O)[C@](C)(O)C[C@@H](C)CN(C)[C@H](C)[C@@H](O)[C@]1(C)O` [Azithromycin, reference compound], which “logCFU/ml at Time (hr): 0” value (S. pneumoniae 22257) is on record?
A: 6.35 logCFU/ml

Q: And the “logCFU/ml at Time (hr): 3” value (S. pneumoniae 22257)?
A: 4.53 logCFU/ml

Q: What about the “logCFU/ml at Time (hr): 6” value (S. pneumoniae 22257) of the same compound?
A: 3.39 logCFU/ml

Q: What about the “logCFU/ml at Time (hr): 8” value (S. pneumoniae 22257) of the same compound?
A: ≤ 1.70* logCFU/ml

Q: And the “logCFU/ml at Time (hr): 24” value (S. pneumoniae 22257)?
A: ≤ 1.70* logCFU/ml

Q: What about the “ΔlogCFU/ml (24-0 hr)” value (S. pneumoniae 22257) of the same compound?
A: −4.65 logCFU/ml

Q: What about the “effect of compound G on the bactericidal activity (kill kinetics, kill extent) of the antibiotic” value [1] of the same compound?
A: no effect

Q: With `CN(Cc1cc2ccccc2n1C)C(=O)/C=C/c1ccc(NC(=O)CCC(=O)N2CCOCC2)nc1` [Example 216, (E)-N-(5-{2-[Methyl-(1-methyl-1H-indol-2-ylmethyl)carbamoyl]vinyl}pyridin-2-yl)-4-morpholin-4-yl-4-oxo-butyramide] as the compound, how does the melting point read?
A: 206 to 209 °C (dec.)

Q: Which results are given for `COc1c(N2CCNC(C)C2)c(F)cc2c(=O)c(C(=O)O)cn(C3CC3)c12` (stereo not drawn) [Gatifloxacin, reference compound]?
A: logCFU/ml at Time (hr): 0 (S. pneumoniae 22425): 5.18 logCFU/ml; logCFU/ml at Time (hr): 2 (S. pneumoniae 22425): 4.26 logCFU/ml; logCFU/ml at Time (hr): 6 (S. pneumoniae 22425): 2.77 logCFU/ml; logCFU/ml at Time (hr): 24 (S. pneumoniae 22425): ≤ 1.70* logCFU/ml; ΔlogCFU/ml (24-0 hr) (S. pneumoniae 22425): −3.48 logCFU/ml; bactericidal activity, log reduction in CFU at 24 hours ([1]; antibiotic alone, S. pneumoniae 22425, 24 hours, FIG. 8): −3.5 log; effect of compound G on the bactericidal activity (kill kinetics, kill extent) of the antibiotic [1]: no effect

Q: Which melting point does the source give for `CN(Cc1cc2ccccc2n1C)C(=O)/C=C/c1ccc(NC(=O)CCC(N)=O)nc1` [Example 214, (E)-N-(5-{2-[Methyl-(1-methyl-1H-indol-2-ylmethyl)carbamoyl]vinyl}pyridin-2-yl)succinamide] here?
A: 225 to 227 °C

Q: With `CN1CCN(C(=O)CCC(=O)Nc2ccc(/C=C/C(=O)N(C)Cc3cc4ccccc4n3C)cn2)CC1` [Example 215, (E)-N-(5-{2-[Methyl-(1-methyl-1H-indol-2-Ylmethyl)carbamoyl]vinyl}pyridin-2-yl)-4-(4-methyl-piperazin-1-yl)-4-oxo-butyramide] as the compound, how does the melting point read?
A: 145 to 147 °C (dec.)

Q: What does the source list for `CO/N=C(\C(=O)N[C@@H]1C(=O)N2C(C(=O)O)=C(COC(N)=O)CS[C@H]12)c1ccco1` [Cefuroxime, reference compound]?
A: logCFU/ml at Time (hr): 0 (S. pneumoniae 22257): 6.39 logCFU/ml; logCFU/ml at Time (hr): 3 (S. pneumoniae 22257): 1.92 logCFU/ml; logCFU/ml at Time (hr): 6 (S. pneumoniae 22257): 1.70 logCFU/ml; logCFU/ml at Time (hr): 8 (S. pneumoniae 22257): ≤ 1.70* logCFU/ml; logCFU/ml at Time (hr): 24 (S. pneumoniae 22257): ≤ 1.70* logCFU/ml; ΔlogCFU/ml (24-0 hr) (S. pneumoniae 22257): −4.69 logCFU/ml; effect of compound G on the bactericidal activity (kill kinetics, kill extent) of the antibiotic [1]: no effect

Q: What does the source list for `C[C@@H](O)[C@H]1C(=O)N2C(C(=O)O)=C(S[C@@H]3CN[C@H](C(=O)N(C)C)C3)[C@H](C)[C@H]12` [Meropenem, reference compound]?
A: logCFU/ml at Time (hr): 0 (E. faecalis A6221420): 5.12 logCFU/ml; logCFU/ml at Time (hr): 2 (E. faecalis A6221420): 4.31 logCFU/ml; logCFU/ml at Time (hr): 4 (E. faecalis A6221420): 3.41 logCFU/ml; logCFU/ml at Time (hr): 8 (E. faecalis A6221420): 2.67 logCFU/ml; logCFU/ml at Time (hr): 24 (E. faecalis A6221420): ≤ 1.70* logCFU/ml; ΔlogCFU/ml (24-0 hr) (E. faecalis A6221420): −3.43 logCFU/ml
